The structures appear in SMILES notation. Positions count from the first letter of the chain named.

The results in this text go back to publication PMC8788362, “Rational design and synthesis of 2-(1H-indazol-6-yl)-1H-benzo[d]imidazole derivatives as inhibitors targeting FMS-like tyrosine kinase 3 (FLT3) and its mutants” (Journal of Enzyme Inhibition and Medicinal Chemistry, 2022).

In series [1] the target is T1, FLT3 wild type (Homo sapiens, UniProt P36888).
T1 construct: purchased Reaction Biology Corp. (Kinase HotSpot service)
T1 sequence (P36888 27-993): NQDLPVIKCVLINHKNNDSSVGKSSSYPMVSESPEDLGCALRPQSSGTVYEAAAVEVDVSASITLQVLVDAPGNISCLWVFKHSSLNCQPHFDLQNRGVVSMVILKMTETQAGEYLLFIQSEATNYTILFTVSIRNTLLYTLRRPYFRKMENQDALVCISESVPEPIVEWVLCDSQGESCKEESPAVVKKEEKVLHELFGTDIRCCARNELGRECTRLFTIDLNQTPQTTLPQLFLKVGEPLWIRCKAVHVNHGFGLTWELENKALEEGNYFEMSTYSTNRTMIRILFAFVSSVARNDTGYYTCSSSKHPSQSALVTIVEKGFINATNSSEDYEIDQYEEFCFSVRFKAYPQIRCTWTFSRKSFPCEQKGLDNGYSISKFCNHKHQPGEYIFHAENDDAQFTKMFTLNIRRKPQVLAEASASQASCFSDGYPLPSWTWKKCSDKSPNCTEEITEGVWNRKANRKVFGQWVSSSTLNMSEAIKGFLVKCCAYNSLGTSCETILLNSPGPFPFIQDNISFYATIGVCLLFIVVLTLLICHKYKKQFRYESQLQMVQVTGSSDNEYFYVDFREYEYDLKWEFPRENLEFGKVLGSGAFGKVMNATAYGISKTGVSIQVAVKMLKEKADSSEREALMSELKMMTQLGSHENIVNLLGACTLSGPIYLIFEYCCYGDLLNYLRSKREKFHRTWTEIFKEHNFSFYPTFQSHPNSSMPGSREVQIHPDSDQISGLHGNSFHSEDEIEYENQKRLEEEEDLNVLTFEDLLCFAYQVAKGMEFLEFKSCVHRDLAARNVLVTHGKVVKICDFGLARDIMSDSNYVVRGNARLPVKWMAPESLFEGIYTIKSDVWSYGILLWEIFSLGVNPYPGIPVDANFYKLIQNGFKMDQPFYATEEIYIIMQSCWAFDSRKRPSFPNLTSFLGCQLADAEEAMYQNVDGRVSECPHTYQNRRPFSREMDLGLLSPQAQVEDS
Briefly: Reaction Biology Kinase HotSpot radiometric kinase assay. It is filed as biochemical. The following applies: ATP 10 µM; read-out: FLT3 IC50. From the text:
(§1) (specific activity approx. 500 cpm/pmol, concentration as required).

Series [2] deals with T2, FLT3 (D835Y) (Homo sapiens, UniProt P36888, D835Y).
T2 construct: purchased Reaction Biology Corp. (Kinase HotSpot service)
T2 sequence (P36888 27-993 D835Y): T1 sequence (P36888 27-993) with D809Y
The description is as above. It is filed as biochemical.
Text: as §1

Consider `O=C(Nc1ccc(Cl)c(Cl)c1)Nc1ccc2[nH]c(-c3ccc4cn[nH]c4c3)nc2c1` [8m, 1–(2-(1H-Indazol-6-yl)-1H-benzo[d]imidazol-5-yl)-3–(3,4-dichlorophenyl)urea], for which the melting point lay within 144 to 146 °C. Further, the IC50 in series [1] came out at 3580 nM. This molecule had an IC50 in series [2] of 1010 nM.
`CN1CCC(Nc2cc(C(=O)Nc3ccc4[nH]c(-c5ccc6cn[nH]c6c5)nc4c3)cc(C(F)(F)F)c2)CC1` [8s, N-(2-(1H-Indazol-6-yl)-1H-benzo[d]imidazol-5-yl)-3-((1-methylpiperidin-4-yl)amino)-5-(trifluoromethyl)benzamide] gave a melting point of 175 to 177 °C. Also, the IC50 in series [1] came to 158 nM. In series [2], this molecule displayed an IC50 of 25 nM.
The molecule `Cc1cn(-c2cc(C(=O)Nc3ccc4[nH]c(-c5ccc6cn[nH]c6c5)nc4c3)cc(C(F)(F)F)c2)cn1` [8b, N-(2-(1H-Indazol-6-yl)-1H-benzo[d]imidazol-5-yl)-3–(4-methyl-1H-imidazol-1-yl)-5-(trifluoromethyl)benzamide] returned a melting point of 239 to 241 °C. Moreover, the IC50 in series [1] amounted to 639 nM. For the same molecule, the IC50 in series [2] stood at 110 nM.
On the same counts, the results for `CN1CCC(Oc2cc(C(=O)Nc3ccc4[nH]c(-c5ccc6cn[nH]c6c5)nc4c3)cc(C(F)(F)F)c2)CC1` [8u, N-(2-(1H-Indazol-6-yl)-1H-benzo[d]imidazol-5-yl)-3-((1-methylpiperidin-4-yl)oxy)-5-(trifluoromethyl)benzamide] are 293 to 295 °C, 289 nM and 55 nM.
`CC(C)(C)c1cc(NC(=O)Nc2ccc3[nH]c(-c4ccc5cn[nH]c5c4)nc3c2)no1` [8l, 1–(2-(1H-Indazol-6-yl)-1H-benzo[d]imidazol-5-yl)-3–(5-(tert-butyl)isoxazol-3-yl)urea] displayed a melting point of 184 to 186 °C. The IC50 in series [1] was found to be 1170 nM. Besides, the midpoint of inhibition in series [2], the IC50, lay at 261 nM.
As to `O=C(Nc1ccc2[nH]c(-c3ccc4cn[nH]c4c3)nc2c1)c1ccc(Cl)c(C(F)(F)F)c1` [8i, N-(2-(1H-Indazol-6-yl)-1H-benzo[d]imidazol-5-yl)-4-chloro-3-(trifluoromethyl)benzamide], the melting point is 215 to 217 °C. In series [1], the IC50 turned out to be 676 nM. For the same molecule, in series [2], inhibition was half-maximal at 84 nM (IC50).
The molecule `CCN1CCN(Cc2ccc(C(=O)Nc3ccc4[nH]c(-c5ccc6cn[nH]c6c5)nc4c3)cc2C(F)(F)F)CC1` [8w, N-(2-(1H-Indazol-6-yl)-1H-benzo[d]imidazol-5-yl)-4-((4-ethylpiperazin-1-yl)methyl)-3-(trifluoromethyl)benzamide] came in with a melting point of 164 to 166 °C. Moreover, in series [1], the IC50 came out at 290 nM. The molecule also displayed an IC50 in series [2] of 13 nM.
In turn, `CCN1CCN(Cc2cc(C(=O)Nc3ccc4[nH]c(-c5ccc6cn[nH]c6c5)nc4c3)cc(C(F)(F)F)c2)CC1(C)C` [8y, N-(2-(1H-Indazol-6-yl)-1H-benzo[d]imidazol-5-yl)-3-((4-ethyl-3,3-dimethylpiperazin-1-yl)methyl)-5-(trifluoromethyl)benzamide] had a melting point of 255 to 257 °C. Moreover, the IC50 in series [1] amounted to 145 nM. In addition, the IC50 in series [2] worked out at 42 nM.
With `O=C(Nc1ccc2[nH]c(-c3ccc4cn[nH]c4c3)nc2c1)c1cc(N2CCOCC2)cc(C(F)(F)F)c1` [8d, N-(2-(1H-Indazol-6-yl)-1H-benzo[d]imidazol-5-yl)-3-morpholino-5-(trifluoromethyl)benzamide], the melting point was 195 to 196 °C. Further, the IC50 in series [1] came to 1030 nM. For the same molecule, the IC50 in series [2] amounted to 151 nM.
Regarding `CCN(CC)C1CCN(c2cc(C(=O)Nc3ccc4[nH]c(-c5ccc6cn[nH]c6c5)nc4c3)cc(C(F)(F)F)c2)C1` (stereo not drawn) [8o, N-(2-(1H-Indazol-6-yl)-1H-benzo[d]imidazol-5-yl)-3–(3-(diethylamino)pyrrolidin-1-yl)-5-(trifluoromethyl)benzamide], the melting point lay within 221 to 223 °C. Further, in series [1], the IC50 stood at 841 nM. The molecule also registered an IC50 in series [2] of 120 nM.
On the same counts, the results for `CN1CCC(Oc2ccc(C(=O)Nc3ccc4[nH]c(-c5ccc6cn[nH]c6c5)nc4c3)cc2C(F)(F)F)CC1` [8x, N-(2-(1H-Indazol-6-yl)-1H-benzo[d]imidazol-5-yl)-4-((1-methylpiperidin-4-yl)oxy)-3-(trifluoromethyl)benzamide] are 293 to 295 °C, 743 nM and 145 nM.
The matching figures for `O=C(Nc1ccc2[nH]c(-c3ccc4cn[nH]c4c3)nc2c1)c1cnn(-c2ccccc2)c1C(F)(F)F` [8g, N-(2-(1H-Indazol-6-yl)-1H-benzo[d]imidazol-5-yl)-1-phenyl-5-(trifluoromethyl)-1H-pyrazole-4-carboxamide]: 258 to 260 °C, 1100 nM and 63 nM.
Molecule `CCN1CCC(Nc2cc(C(=O)Nc3ccc4[nH]c(-c5ccc6cn[nH]c6c5)nc4c3)cc(C(F)(F)F)c2)CC1` [8t, N-(2-(1H-Indazol-6-yl)-1H-benzo[d]imidazol-5-yl)-3-((1-ethylpiperidin-4-yl)amino)-5-(trifluoromethyl)benzamide] yielded a melting point of 166 to 168 °C. The IC50 in series [1] was determined as 285 nM. In addition, in series [2], 87 nM corresponded to half-maximal inhibition (IC50).
`COc1ccc(/C=C/C(=O)Nc2ccc3[nH]c(-c4ccc5cn[nH]c5c4)nc3c2)cc1` [8k, (E)-N-(2-(1H-Indazol-6-yl)-1H-benzo[d]imidazol-5-yl)-3–(4-methoxyphenyl)acrylamide] showed a melting point of 206 to 208 °C. The IC50 in series [1] worked out at 761 nM. Also, the IC50 in series [2] is 191 nM.
Molecule `CN1CCN(c2cc(C(=O)Nc3ccc4[nH]c(-c5ccc6cn[nH]c6c5)nc4c3)cc(C(F)(F)F)c2)CC1` [8a, N-(2-(1H-Indazol-6-yl)-1H-benzo[d]imidazol-5-yl)-3–(4-methylpiperazin-1-yl)-5-(trifluoromethyl)benzamide] registered a melting point of 228 to 230 °C. In series [1], the IC50 is 181 nM. In series [2], the IC50 is 21 nM.
The matching figures for `CC(C)(C)c1cc(C(=O)Nc2ccc3[nH]c(-c4ccc5cn[nH]c5c4)nc3c2)no1` [8h, N-(2-(1H-Indazol-6-yl)-1H-benzo[d]imidazol-5-yl)-5-(tert-butyl)isoxazole-3-carboxamide]: 147 to 149 °C, 702 nM and 82 nM.
The matching figures for `O=C(Nc1ccc2[nH]c(-c3ccc4cn[nH]c4c3)nc2c1)c1cc(N2CCN(C3CC3)CC2)cc(C(F)(F)F)c1` [8p, N-(2-(1H-Indazol-6-yl)-1H-benzo[d]imidazol-5-yl)-3–(4-cyclopropylpiperazin-1-yl)-5-(trifluoromethyl)benzamide]: 154 to 156 °C, 409 nM and 131 nM.
On the same counts, the results for `O=C(Nc1ccc2[nH]c(-c3ccc4cn[nH]c4c3)nc2c1)c1ccc(Cl)c(Cl)c1` [8j, N-(2-(1H-Indazol-6-yl)-1H-benzo[d]imidazol-5-yl)-3,4-dichlorobenzamide] are 255 to 257 °C, 514 nM and 103 nM.

As usually defined, the IC50 is the concentration that gives 50% inhibition. A word on the melting point: it is the temperature, or range, at which the solid turns liquid.
